Results taken from patent US20130047297A1, “POLYNUCLEOTIDE MOLECULES FOR GENE REGULATION IN PLANTS” (priority 2010, published 2013).
d = 2'-deoxy (DNA); r = 2'-OH (RNA)

Columns and labels:
Type in all cases: in vivo
[1] = tested on: Glyphosate-sensitive Palmer amaranth (Amaranthus palmeri) plants; assay: HPPD, PPO, TIF anti-sense ssDNA with mesotrione, fomesafen, atrazine, plant height (Example 28, Tables 18 and 19); conditions: for Plant height (mm): four days after herbicide treatment
Protocol: The herbicidal activity of ssDNA polynucleotides that target the enzymes […] and protoporphyrinogen oxidase (PPO), and a transcription initiation factor (TIF), and their effect on the herbicide activity when used in combination with the herbicides mesotrione, fomesafen, and atrazine in Palmer amaranth was investigated.
Glyphosate-sensitive Palmer amaranth (Amaranthus palmeri) plants were grown in 4-inch square pots with Sun Gro® Redi-Earth seedling mix containing 3.5 kg/cubic meter Osmocote® 14-14-14 fertilizer in a greenhouse with 14 h photoperiod and a daytime temperature of 30 degrees Celsius and night temperature of 20 degrees Celsius. The plants were sub-irrigated as necessary.
Plants at 10 to 15 cm height were pre-treated manually with 40 microliters (4 fully expanded mature leaves were treated with 10 microliters of solution per leaf on each plant) of a buffer-surfactant solution (as a control; 0.5% Silwet L-77 and 2% ammonium sulfate), or a buffer-surfactant-ssDNA polynucleotide mixture of the anti-sense oligonucleotides targetting HPPD, PPO, or TIF. Some plants were left untreated and were used as controls. […] Crop oil concentrate (COC) at 1% was added to all herbicide treatments. A low rate of each herbicide ([…], equivalent to ⅛ of the recommended field rate; […], equivalent to 1/22 of the recommended field rate; […], equivalent to ⅛ of the recommended field rate,) was used to be able to detect any improvement of herbicide activity by the oligonucleotide mixture.
Plant height was determined at four days after herbicide treatment. Data were collected from one experiment with four replications per treatment.

[2] = tested on: glyphosate-resistant Palmer amaranth containing 16 copies of EPSPS; assay: Glyphosate counter-ions with EPSPS polynucleotides (Example 35, Table 29); conditions: for herbicidal activity compared to the potassium salt: 1682 g acid equivalent per hectare of glyphosate salt with IDT [1]-[4], 21 days after glyphosate treatment; for Palmer control (%) / Palmer height (cm): 1682 g acid equivalent per hectare of the glyphosate salt, with or without EPSPS polynucleotides (IDT [1]-[4]) in 0.5% Silwet L-77, 2% ammonium sulfate, 16 copies of EPSPS, 21 days after treatment
Description: FIG. 38 depicts the effect of varying glyphosate counter-ions on herbicidal activity (presented as percent of weed control/kill, and as plant height) of topically applied polynucleotides (RNA) on glyphosate-resistant Palmer amaranth plants. A mixture of EPSPS polynucleotides (IDT [1] (SEQ ID NO:83-84), IDT [2] (SEQ ID NO:85-86), IDT [3] (SEQ ID NO:87-88), and IDT [4] (SEQ ID NO:89-90)) in 0.5% Silwet L-77, 2% ammonium sulfate in 10 millimolar sodium phosphate buffer, pH 6.8 with 0.2% Roundup® WeatherMax® carrier (MON56151 tallowamine surfactant blend of tallowamine (16-18C) and cocoamine (12-14C) in the ratio of 55:45) and 1682 g acid equivalent per hectare of one of the glyphosate salts; K+ glyphosate, isopropylammonium+ glyphosate or monoethanolammonium+ glyphosate at 215 liters/acre by Milli spray on 3 replicates of 4-6 inch glyphosate-resistant Palmer amaranth containing 16 copies of EPSPS. Plant height was scored at 21 days after glyphos ate treatment.

Palmer amaranth = assay: Combinations of EPSPS, TIF and ddATPase polynucleotides then glyphosate (Example 26, Tables 12 and 13)
Protocol: Solutions of the polynucleotides were prepared and applied to the leaves of Palmer amaranth using the protocols described in Table 12.

[3] = tested on: glyphosate-resistant Palmer amaranth plants; assay: Salts, EDTA, glycerin as additives to polynucleotide spray solutions (Example 35, Tables 26-28); conditions: for enhancing the efficacy of the polynucleotides and potentiating the herbicidal activity of glyphosate: additive in the spray solution
[4] = tested on: Nicotiana benthamiana phytoene desaturase; assay: Topical oligonucleotides/polynucleotides on tobacco, PDS bleaching and chlorophyll (Example 10)
Protocol: The following procedure was used for all assays described in this example. Four-week old Nicotiana benthamiana plants were used in all assays. Plants were treated with 0.1% Silwet L-77 solution freshly made with ddH2O. Two fully expanded leaves per plant (one cotyledon, one true leaf) were dipped into the Silwet L-77 solution for a few seconds, and allowed to dry for 15-30 minutes before application of the polynucleotide composition. Final concentration for each oligonucleotide or polynucleotide was 25 microM (in 0.01% Silwet L-77, 5 mM sodium phosphate buffer, pH 6.8) unless otherwise stated. 20 microliters of the solution was applied to the top surface of each of the two pre-treated leaves to provide a total of 40 microliters (1 nmol oligonucleotide or polynucleotide) for each plant. Leaf bleaching was observed 3 days post treatment.
FIG. 13 illustrates phenotypes observed at day 12 after treatment in another assay of the effect from twelve combinations of polynucleotides or oligonucleotides (see Table 4). Table 4 also lists observations of visible bleaching of the plants at day 5 after treatment and the results of chlorophyll measurements taken at days 7 and 12 after treatment. Chlorophyll measurements are an indication of suppression of the target gene phytoene desaturase, and measurements were taken at 6 spots on the apical area, focussing on visibly bleached leaves or (in plants without visible bleaching) on leaves in equivalent locations on the plants; lower chlorophyll measurement values indicate suppression of phytoene desaturase.

[5] = pre-treatment: Buffer (0.5% Silwet L-77 and 2% ammonium sulfate), herbicide 24 h later (mesotrione 13, fomesafen 23 grams per hectare, 1% COC)
[6] = pre-treatment: Untreated, herbicide only (mesotrione 13, fomesafen 23, atrazine 170 grams per hectare of active ingredient, 1% COC)
[7] = protocol 3, 29 g/acre, copy number 16, 13 DAT
[8] = 2% salt as additive to 1% Silwet L-77 spray solution of topically applied polynucleotides (RNA), glyphosate
[9] = Table 26: additive to 1% Silwet L-77 spray solution of polynucleotides (RNA), glyphosate

With `CS(=O)(=O)c1ccc(C(=O)C2C(=O)CCCC2=O)c([N+](=O)[O-])c1` [mesotrione] the “Plant height (mm)” value [1, 5] was 179 mm and the “Plant height (mm)” value [1, 6] was 180 mm.

With `NCCO.O=C(O)CNCP(=O)(O)O` [monoethanolammonium+ glyphosate, reference compound] the “herbicidal activity compared to the potassium salt” value [2] was “better herbicidal activity”.

With “IDT [3]: Palmer/EPSPS dsRNA, SEQ ID NO. 87, 88 (chain 1 GGUCGACAACUUGCUGUAUAGUGA; chain 2 AUCACUAUACAGCAAGUUGUCGACCUC; chain 1: sugars from the 5' end r23 d1, 3' dT, backbone not given here; chain 2: RNA, backbone not given here)” the “Results: % stunted” value (Palmer amaranth; [7]) was 51% stunted.

In the case of “IDT [5]: Palmer/EPSPS dsRNA (21-mer) with blunt ends, SEQ ID NO. 91, 92 (chain 1 AACAUGAACAAAAUGCCAGAU; chain 2 AUCUGGCAUUUUGUUCAUGUU; RNA, backbone not given here)”, the “Results: % stunted” value (Palmer amaranth; protocol 1, 0.29 g/acre, copy number 33, 54, 55, 18 DAT) is reported as 71%, the “Results: % stunted” value (Palmer amaranth; protocol 1, 0.29 g/acre, copy number 34, 36, 54, 22 DAT) is reported as 14.1% and the “Results: % killed” value (Palmer amaranth; protocol 1, 2.9 g/acre each, copy number 34, 36, 54, 22 DAT) is reported as 100% kill. For the same molecule, the “Results: % killed” value (Palmer amaranth; protocol 1, 2.9 g/acre, copy number 33, 54, 55, 18 DAT) was 100% killed.

`CS(=O)(=O)NC(=O)c1cc(Oc2ccc(C(F)(F)F)cc2Cl)ccc1[N+](=O)[O-]` [fomesafen] was tested, and the “Plant height (mm)” value [1, 5] was 139 mm and the “Plant height (mm)” value [1, 6] was 158 mm.

For `OCC(O)CO` [Glycerin, glycerin], the “enhancing the efficacy of the polynucleotides and potentiating the herbicidal activity of glyphosate” value (“enhancing the efficacy” for short) [3] was “enhance the efficacy of the polynucleotides”.

In the case of `N.N.O=S(=O)(O)O` [ammonium sulfate], the “Palmer control (%)” value [3, 8] is reported as 54%, the “Palmer height (cm)” value [3, 8] is reported as 9.3 cm and the “Palmer height (cm)” value [3, 9] is reported as 1.8 cm. The “Palmer control (%)” value ([3]; in vivo) was 43%.

`CC(C)N.O=C(O)CNCP(=O)(O)O` [isopropylammonium+ glyphosate, reference compound] was tested, and the “herbicidal activity compared to the potassium salt” value [2] was “better herbicidal activity”.

In the case of `CC[N+](CC)(CC)CC.[Cl-]` [tetraethylammonium chloride], the “Palmer control (%)” value [3, 8] is reported as 27% and the “Palmer height (cm)” value [3, 8] is reported as 12.0 cm.

`C[N+](C)(C)C.[Cl-]` [tetramethylammonium chloride] was tested, and the “Palmer control (%)” value ([3]; in vivo) was 19% and the “Palmer height (cm)” value ([3]; in vivo) was 15.0 cm.

For `Cl.N` [ammonium chloride], the “Palmer control (%)” value [3, 8] was 52%, the “Palmer height (cm)” value [3, 8] was 10.3 cm and the “enhancing the efficacy” value [3] was “act similarly to ammonium sulfate”.

`O=C(O)CNCP(=O)([O-])O.[K+]` [K + glyphosate] was tested, and the “Palmer control (%)” value [2] was 23% and the “Palmer height (cm)” value [2] was 12.3 cm.

In the case of `O=S(=O)([O-])[O-].[Na+].[Na+]` [sodium sulfate], the “Palmer control (%)” value ([3]; in vivo) is reported as 7% and the “Palmer height (cm)” value ([3]; in vivo) is reported as 17.0 cm.

In the case of `CC(C)N.O=C(O)CNCP(=O)(O)O` [IPA + glyphosate], the “Palmer control (%)” value [2] is reported as 9% and the “Palmer height (cm)” value [2] is reported as 14.5 cm.

With `O=C(O)CN(CCN(CC(=O)O)CC(=O)O)CC(=O)O` [EDTA, ethylenediaminetetraacetic acid] the “Palmer control (%)” value ([3]; Table 26: additive (2% ammonium sulfate; 0.004% EDTA) to 1% Silwet L-77 spray solution of polynucleotides (RNA), glyphosate) was 45%, the “Palmer height (cm)” value [3, 9] was 1.0 cm and the “enhancing the efficacy” value [3] was “act similarly to 2% ammonium sulfate”.

In the case of “IDT [1]: Palmer/EPSPS dsRNA, SEQ ID NO. 83, 84 (chain 1 CUACCAUCAACAAUGGUGUCCAUAC; chain 2 GUAUGGACACCAUUGUUGAUGGUAGUA; chain 1: sugars from the 5' end r23 d2, backbone not given here; chain 2: RNA, backbone not given here)”, the “Results: % stunted” value (Palmer amaranth; [7]) is reported as 51% stunted.

With “IDT [4]: Palmer/EPSPS dsRNA, SEQ ID NO. 89, 90 (chain 1 UGCAAGGUCACCUGGACAGAGAAA; chain 2 UAUUCUCUGUCCAGGUGACCUUGCAAC; listed as RNA, chemistry not fully specified)” the “Results: % stunted” value (Palmer amaranth; [7]) was 51% stunted.

For `CCCC[P+](CCCC)(CCCC)CCCC.[Br-]` [tetrabutylphosphonium bromide], the “enhancing the efficacy” value [3] was “act similarly to ammonium sulfate”.

For “IDT [2]: Palmer/EPSPS dsRNA, SEQ ID NO. 85, 86 (chain 1 AGUUGGUGGGCAAUCAUCAAUUG; chain 2 AACAAUUGAUGAUUGCCCACCAACUCU; chain 1: RNA, 3' dTdT, backbone not given here; chain 2: RNA, backbone not given here)”, the “Results: % control” value (Palmer amaranth; [7]) was 0% control.

With `NCCO.O=C(O)CNCP(=O)(O)O` [MEA + glyphosate] the “Palmer control (%)” value [2] was 9% and the “Palmer height (cm)” value [2] was 14.5 cm.

`[Cl-].[Na+]` [sodium chloride] was tested, and the “Palmer control (%)” value [3, 8] was 15% and the “Palmer height (cm)” value [3, 8] was 15.0 cm.

`CCNc1nc(Cl)nc(NC(C)C)n1` [atrazine] was tested, and the “Plant height (mm)” value [1, 6] was 146 mm.

B1: HPPD anti-sense ssDNA oligonucleotides: 8 HPPD anti-sense ssDNA oligonucleotides (SEQ ID NOS:141-148) (nucleic acid)
antisense 1: TCCGTAGCTTACATACCGAAG
antisense 2: TCCAAGTGAATAGGAGAAACA
antisense 3: AGCAGCTTCTGCGTCTTCTAC
antisense 4: ACAGCACGCACGCCAAGACCG
antisense 5: CGATGTAAGGAATTTGGTAAA
antisense 6: CGAGGGGATTGCAGCAGAAGA
antisense 7: GTAGGAGAATACGGTGAAGTA
antisense 8: GACCCCAAGAAAATCGTCTGC
modifications: DNA, backbone not given here
With B1 the “growth reduction relative to the buffer-surfactant control” value ([1]; ssDNA pre-treatment without herbicide) was 32% and the “Palmer amaranth plant height” value ([1]; ssDNA pre-treatment without herbicide, 40 microliters per plant in 0.5% Silwet L-77 and 2% ammonium sulfate, buffer-surfactant control 185 mm) was 125 mm.

B2: Oligos 1, 2, and 3 w/o T7 promoter and oligos 4, 5, & 6: SEQ ID NOs 18, 19, 22, 23, 24, 25, 26 (nucleic acid)
chain 1: GCAAGAGATGTCCTAGGTGGG
chain 2: ACAGATTTCTTCAGGAGAAACATGG
chain 3: CATCTCCTTTAATTGTACTGCC
chain 4: TTTAATTGTACTGCCATTATTC
chain 5: CACTTCCATCCTCATTCAGCTCGAT
chain 6: ACACCTCATCTGTCACCCTATCAG
chain 7: CAGTCTCGTACCAATCTCCATCAT
modifications: DNA, backbone not given here
In the case of B2, the “Chlorophyll (day 12)” value ([4]; 6 spots on the apical area, buffer control 38.4) is reported as 34.4, the “Chlorophyll (day 7)” value ([4]; 6 spots on the apical area, lower values indicate suppression of phytoene desaturase, buffer control 31.2) is reported as 30.2 and the “Bleaching (day 5)” value ([4]; 25 microM each, 40 microliters per plant) is reported as “not yet”.
